Measured values published in patent publication US7655392B2, “Quenching methods for red blood cell inactivation process” (priority 2004, dated 2010).
Several values for one entry are separate records, joined by “and”; a condition that tells them apart may be missing. Identical values can stand only once.

Columns and labels:
[1] = test system: Human Leukocyte Genomic DNA; test: PIC-1 adduct frequency on leukocyte genomic DNA (14C-labelled PIC-1); type: biochemical; conditions: 20 h RT
Excerpt: The quenching methods of the invention can also be compared to existing methods by determining the level of modification of nucleic acids in a sample. Typically, a red blood cell composition may contain leukocytes, and the nucleic acid from the leukocytes can be isolated. A pathogen inactivating compound having a radioactive isotope that, upon reaction of the compound with nucleic acid, will remain bound to the nucleic acid. This can be used to assess the amount of compound reacted with the nucleic acid for a variety of quenching methods, and provides a measure that can be directly correlated to expected leukocyte inactivation. The number of adducts formed per 1,000 nucleic acid base pairs can be used as a model to assess the expected impact of the various methods on pathogen inactivation. Alternatively, a suitable amount of a pathogen can be added to a red blood cell composition and the nucleic acid of the pathogen can be isolated after treatment. However, in this case the sample needs to be leukoreduced such that the levels of any residual leukocytes will not interfere with the measurement of pathogen nucleic acid.
The PIC-1 used included radiolabeled PIC-1, where the reactive group included a ^14C label (ViTrax, Inc., Placentia, Calif.). The specific activity of the PIC-1 used was […]. All samples were incubated at room temperature for 20 hours. After the incubation, 20 mL of RBC were diluted with a 20 mL volume of PBS and 20 mL of the mixture were added to each of two tubes containing 10 mL of Ficoll. The suspension was then centrifuged at 400×g for 30 minutes. The white blood cell portion was separated and the centrifuge step repeated after adding another 20 mL of PBS. The pellets obtained were combined and the combined pellet was resuspended in 5 mL Lysis buffer (100 mM NaCl, 10 mM Tris HCl, 25 mM EDTA, 5% SDS, 0.1 mg/mL Proteinase K, Sigma, St. Louis, Mo.) and was incubated at 50° C. for at least two hours. The resulting solution was then extracted with 5 mL of phenol:chloroform:isoamyl alcohol […], followed by 5 mL of chloroform, and then 5 mL of ether. The genomic DNA was isolated in the aqueous layer and precipitated by addition of 0.5 mL of 3 M NaOAc, 10 mL of 100% ethanol, followed by incubation of the final mixture in a dry ice/ethanol bath. The DNA was isolated by centrifugation at 6,000×g for 10′. The supernatant was removed, and the pellet air-dried and resuspended in 1 mL of TE buffer (100 mM Tris HCl, 1 mM EDTA, pH=7.4) The amount of DNA isolated was quantified by UV absorption at 260 nm and the amount of PIC-1 adducts was quantified by liquid scintillation counting (Perkin Elmer-Wallac, Winspectral 1414 Liquid Scintillation Counter, Shelton, Conn.) of the solution of DNA, using the specific activity of the PIC-1 to assess the molar ratio of PIC-1 to DNA base pairs. […] Glutathione is indicated as “GSH” and cysteine as “Cys” in the table, as well as elsewhere herein. The determination of adduct frequency was used as a surrogate measurement for the inactivation of leukocytes. It is known that under the standard pathogen inactivation conditions, leukocytes are inactivated to the level of detection of a limiting dilution assay, which corresponds to 5.3 log of inactivation. The mechanism of inactivation is through formation of adducts on the genomic nucleic acids. […] Similar studies could be done with a suitable pathogen using leukoreduced red blood cells in order to assess the binding to the pathogen nucleic acid under various conditions.

leukocytes = conditions: standard pathogen inactivation conditions; cited from earlier work
[2] = pH of quencher stock and of RBC mixture; type: physicochemical; conditions: for pH of stock quencher: room temperature
Procedure: The effect of various quenching conditions on the pH of a red blood cell composition was determined for various treatment conditions. The quencher solutions were prepared at a concentration of 600 mM in 8% dextrose monohydrate. […] Glutathione was assessed at 2 mM (acidic) or 20 mM (2 eq. of base). […] The pH of the quencher solution, either unmodified or neutralized, was measured using a standard Epoxy Calomel electrode (Beckman Instruments) at room temperature. […] The samples were mixed and the pH at room temperature was measured using the same electrode as described above.
In these, the appropriate amount of 600 mM stock was added, mixed with an appropriate volume of 8% dextrose to provide the same volume addition to each RBC sample where in one study, with varied glutathione concentrations, the pH was measured after adding glutathione and after adding PIC-1. […] Similar samples were also assessed for the inactivation of S. epidermidis. […] For gel card analysis, after incubation, the RBC were washed in BBS and were diluted in BBS to a final hematocrit of 4%. A 25 μL aliquot of each was mixed with 15 μL of rabbit polyclonal anti-acridine sera diluted either 1:4 or 1:100 in BBS and the mixture was incubated at 37° C. for 30 minutes. The cells were subsequently washed with 1.5 mL BBS. After washing was complete, the cells were mixed with goat anti-rabbit Fab′2 fragment anti H+L chains (1:4 dilution in PBS) and incubated at 37° C. for 30 minutes.

[3] = 20 mM GSH neutralized with 2 eq, 0.2 mM PIC-1 10 min later
[4] = 20 mM each neut. GSH (2 eq) and Cys (1 eq), 0.2 mM PIC-1 10 min later

SMILES: O=C(CCNc1c2ccccc2nc2ccccc12)OCCN(CCCl)CCCl [PIC-1]
- Adduct frequency (average number of base pairs between adducts) ([1]; 0.2 mM PIC-1, 2 mM acidic GSH): 44 and 29
- Adducts per kbp ([1]; 0.2 mM PIC-1, 2 mM acidic GSH): 23 and 34
- Adduct frequency (average number of base pairs between adducts) ([1]; 0.2 mM PIC-1, no quencher): 36 and 35
- Adducts per kbp ([1]; 0.2 mM PIC-1, no quencher): 28
- Adduct frequency (average number of base pairs between adducts) [1, 3]: 27 and 28
- Adducts per kbp [1, 3]: 37 and 36
- Adduct frequency (average number of base pairs between adducts) [1, 4]: 33
- Adducts per kbp [1, 4]: 30
- leukocyte inactivation (level of detection of limiting dilution assay) (leukocytes): 5.3 log

SMILES: N[C@@H](CCC(=O)N[C@@H](CS)C(=O)NCC(=O)O)C(=O)O [glutathione, γ-L-glutamyl-L-cysteinyl-glycine]
- pH of stock quencher ([2]; 600 mM in 8% dextrose + 1 eq. base): 6.1
- pH of stock quencher ([2]; 600 mM in 8% dextrose + 2 eq. base): 9.5 and 9.2
- pH of stock quencher ([2]; 600 mM in 8% dextrose, no base added): 2.82 and 3.0
- pH of mixture Post quencher ([2]; RBC + 2 mM acidic glutathione): 6.7
- pH of mixture Final ([2]; RBC + 2 mM acidic glutathione + 0.2 mM PIC-1): 6.7
- pH of mixture Post quencher ([2]; RBC + 2 mM glutathione + 1 eq. base): 6.8
- pH of mixture Final ([2]; RBC + 2 mM glutathione + 1 eq. base + 0.2 mM PIC-1): 6.8
- pH of mixture Post quencher ([2]; RBC + 2 mM glutathione + 2 eq. base): 6.8
- pH of mixture Final ([2]; RBC + 2 mM glutathione + 2 eq. base + 0.2 mM PIC-1): 6.8
- pH of mixture Post quencher ([2]; RBC + 5 mM acidic glutathione): 6.6
- pH of mixture Final ([2]; RBC + 5 mM acidic glutathione + 0.2 mM PIC-1): 6.6
- pH of mixture Post quencher ([2]; RBC + 5 mM glutathione + 1 eq. base): 6.7
- pH of mixture Final ([2]; RBC + 5 mM glutathione + 1 eq. base + 0.2 mM PIC-1): 6.7
- pH of mixture Post quencher ([2]; RBC + 5 mM glutathione + 2 eq. base): 6.9
- pH of mixture Final ([2]; RBC + 5 mM glutathione + 2 eq. base + 0.2 mM PIC-1): 6.9
- pH of mixture Post quencher ([2]; RBC + 10 mM acidic glutathione): 6.4
- pH of mixture Final ([2]; RBC + 10 mM acidic glutathione + 0.2 mM PIC-1): 6.4
- pH of mixture Post quencher ([2]; RBC + 10 mM glutathione + 1 eq. base): 6.7
- pH of mixture Final ([2]; RBC + 10 mM glutathione + 1 eq. base + 0.2 mM PIC-1): 6.7
- pH of mixture Post quencher ([2]; RBC + 10 mM glutathione + 2 eq. base): 7.2
- pH of mixture Final ([2]; RBC + 10 mM glutathione + 2 eq. base + 0.2 mM PIC-1): 7.0
- pH of mixture Post quencher ([2]; RBC + 20 mM acidic glutathione): 6.1
- pH of mixture Final ([2]; RBC + 20 mM acidic glutathione + 0.2 mM PIC-1): 6.1
- pH of mixture Post quencher ([2]; RBC + 20 mM glutathione + 1 eq. base): 6.7
- pH of mixture Final ([2]; RBC + 20 mM glutathione + 1 eq. base + 0.2 mM PIC-1): 6.7
- pH of mixture Post quencher ([2]; RBC + 20 mM glutathione + 2 eq. base): 7.4
- pH of mixture Final ([2]; RBC + 20 mM glutathione + 2 eq. base + 0.2 mM PIC-1): 7.2
- pH of final mixture ([2]; Table 10: RBC + 2 mM acidic quencher + 0.2 mM PIC-1): 6.9
- pH of final mixture ([2]; Table 10: RBC + 20 mM quencher + 2 eq. base + 0.2 mM PIC-1): 7.7
- pH of solution ([2]; glutathione solution neutralized with 2 equivalents of sodium hydroxide): approximately 9.5
- pH of solution ([2]; solution of the protonated glutathione): approximately 3
